Measurements reported in patent publication US20050112573A1, “Method of detecting toxic substance” (priority 2001, published 2005).

Tested on: yeast genes (level of expressed mRNA)
Experiment: DNA chip analysis of expressed mRNA of yeast genes after 2 h culture with a toxic chemical substance
Format: cell-based, Saccharomyces cerevisiae S288C
Experimental: Yeast (Saccharomyces cerevtisiae S288C (α SUC2mal mel gap2 CUP1)) were cultured at 25° C. on YPD medium (yeast extract 1%, polypepton 2%, glucose 2%). One of toxic chemical substances was added to the cell at logarithmic growth phase, and the cell was further cultured for two hours. Cell was cultured without any chemical substance in the same condition, and was used as control. Concentrations of the chemical substances were defined to inhibit the growth of the yeast but not lead to death.
After the completion of cultivation, the culture was centrifuged to collect the cells. To the cells, sodium acetate buffer (50 mM sodium acetate, 10 mM EDTA, 1% SDS) was added, and the mixture was shaken at 65° C. for five minutes, followed by returning to room temperature, and obtaining the supernatant, which procedure was repeated two times. To the supernatant, ½ amount of a solution of phenol/chloroform was added, and the mixture was centrifuged to give a supernatant, which was added with an equal amount of chloroform, and the mixture was centrifuged to give a supernatant. To the supernatant, an equal amount of isopropanol containing 0.3 M sodium acetate was added, and the mixture was allowed to stand at room temperature for 30 minutes, after which the mixture was centrifuged to give a sediment of the whole RNAs. Seventy % ethanol was added to the sediment, and the mixture was again centrifuged to give a sediment, which was then dried and dissolved in water. mRNA was isolated from the whole RNAs as followings. In view of the fact that a poly A chain is attached to the 3′ terminus of mRNA, a polynucleotide having a poly T structure which was immobilized on the surface of latex beads was used to trap the mRNA, and then the mRNA was washed and eluted with spine column (Oligotex-dT30<Super>mRNA Purification Kit, Takara). Reverse transcription of the mRNA was conducted with a reverse transcriptase (Super Script II Reverse Transcriptase; catalogue No. 18064-014, GibcoBRL) using fluorescence-labeled nucleotides to give cDNAs that were introduced with Cy3-dUTP or Cy5-dUTP during the reverse transcription.
The labeled cDNAs were dissolved in TE buffer (10 mM Tris-HCl/1 mM EDTA, pH8.0), and the solution was dropped on the DNA chip containing the whole genes of yeast (DNA Chip Research Inc. Japan) so that the cDNAs were hybridized on the DNA chip at 65° C. for over 12 hours. The fluoresces intensity of the DNA chip was read with a scanner, and the ratio relative to the fluorescence intensity resulting from the absence of chemical substance was estimated as the following, which is shown in Tables 1 to 9: [formula]
In the Tables, “Intensity” indicated in the rightmost column is a value of the level of expressed mRNA of each gene in control cells as divided by the average level of the expressions of the whole genes.

Measured: The level of expressed mRNA in the presence of chemical substance/The level of expressed mRNA in the absence of chemical substance

O=[N+]([O-])c1cc[n+]([O-])c2ccccc12 [(5), 4-nitroquinolin-N-oxide]
2.8: yeast gene YKL139W
1.6: yeast gene YBL041W | yeast gene YDR432W | yeast gene YLR136C | yeast gene YMR219W | yeast gene YOL164W
1.2: yeast gene YCL027W | yeast gene YCR004C | yeast gene YCR071C | yeast gene YDR084C | yeast gene YFL043C | yeast gene YGR136W | yeast gene YGR213C | yeast gene YJL073W | yeast gene YLR391W | yeast gene YNL007C | yeast gene YNL093W | yeast gene YOR117W | yeast gene YOR185C | yeast gene YPL109C | yeast gene YPL154C
1.3: yeast gene YBL005W-A | yeast gene YDR104C | yeast gene YER107C | yeast gene YGR257C | yeast gene YHR139C | yeast gene YHR142W | yeast gene YJL116C | yeast gene YJR086W | yeast gene YKL041W | yeast gene YLR327C | yeast gene YMR276W | yeast gene YPR108W
0.5: yeast gene YCL020W
1.7: yeast gene YDR055W | yeast gene YER130C | yeast gene YFL028C | yeast gene YPR103W
2.0: yeast gene YOR259C
1.0: yeast gene YAR010C | yeast gene YDR259C | yeast gene YDR481C | yeast gene YGL158W | yeast gene YGL229C | yeast gene YLR178C | yeast gene YMR004W | yeast gene YOR355W
1.1: yeast gene YBL043W | yeast gene YBR214W | yeast gene YCR088W | yeast gene YJL089W | yeast gene YJR004C | yeast gene YKL193C | yeast gene YLR120C | yeast gene YLR356W | yeast gene YOR036W | yeast gene YOR124C | yeast gene YOR132W | yeast gene YOR288C
1.4: yeast gene YDR115W | yeast gene YDR358W | yeast gene YLR250W | yeast gene YLR429W | yeast gene YNR069C | yeast gene YPL089C
0.8: yeast gene YEL066W | yeast gene YIL140W | yeast gene YOR198C | yeast gene YPL149W
1.5: yeast gene YER039C | yeast gene YHR004C | yeast gene YHR071W | yeast gene YLR362W | yeast gene YNL333W | yeast gene YOR261C
1.8: yeast gene YDL008W | yeast gene YNR010W
0.6: yeast gene YIL123W | yeast gene YKL096W
0.9: yeast gene YDL238C | yeast gene YDR085C | yeast gene YDR315C | yeast gene YKL008C | yeast gene YKL165C | yeast gene YMR094W | yeast gene YMR226C | yeast gene YNL006W | yeast gene YOR383C
1.9: yeast gene YKL013C
0.7: yeast gene YBL078C | yeast gene YDR388W | yeast gene YDR510W | yeast gene YEL042W | yeast gene YGR189C | yeast gene YKL039W | yeast gene YMR104C | yeast gene YMR275C | yeast gene YOL013C | yeast gene YOR157C | yeast gene YOR181W
